# Reference: patent US9517229B2, “Treatment of breast cancer” (MEDIVATION PROSTATE THERAPEUTICS, INC., priority 2011, dated 2016)
# How the values were obtained:
# Hs578T cells = test: MTS viable cell assay in Hs578T TNBC cell line; assay type: cell-based; settings: RD162′ 10 μM, DHT 10 nM, 9 days, FIG. 8
# Method: Viable cells were assayed by MTS assay. Averages of the triplicate data points are shown with standard deviation. ***p<0.001 (two-tail t-test).
# BCK4 cells = test: Proliferation assay, DHT-mediated growth in BCK4 cells; assay type: cell-based; settings: RD162′ and DHT; FIG. 2
# BT20 cells = test: MTT assay in triple negative breast cancer cell line BT20; assay type: cell-based; settings: 10 μM RD162′, FIG. 6B
# MCF7 cells [1] = test: MCF7 luciferase tumors in mammary fat pad of ovariectomized nod/scid mice with DHT pellet; assay type: in vivo; settings: chow containing 50 mg/kg RD162′ from day 22, FIGS. 5A-D
# MCF7 cells [2] = test: MTT assay, estradiol-mediated growth in MCF7 cells; assay type: cell-based; settings: 10 μM RD162′ with 10 nM estradiol (E2); MTT at various time points; FIG. 3
# Method: MCF7 cells were plated in phenol red-free medium containing charcoal stripped serum. […] An MTT assay was performed at various time points. The values were normalized to an untreated plate read 24 hours after plating to account for differences in cell density.
# MDA-MB-453 cells [3] = test: MDA-MB-453 xenograft in mammary fat pad of NOD-SCID-IL2Rgc-/- mice with DHT pellet (Example 7); assay type: in vivo
# MDA468 cells = test: MTT assay in triple negative breast cancer cell line MDA468; assay type: cell-based; settings: 10 μM RD162′, FIG. 6C
# MCF7 cells [4] = test: MTT in vitro proliferation assay, DHT-mediated growth in MCF7 cells; assay type: cell-based; settings: 10 μM RD162′ with 10 nM DHT; MTT at various time points; FIG. 1
# MDA-MB-453 cells [5] = test: MTS in vitro proliferation assay, DHT-induced proliferation of MDA-MB-453 cells; assay type: cell-based; settings: 10 μM RD162′, 10 nM DHT, FIG. 7A
# MCF7-TGL cells = test: Estrogen stimulated MCF7-TGL orthotopic tumors in ovariectomized nude mice; assay type: in vivo; settings: for BrdU staining of tumor sections, P vs E2 group: BrdU two hours prior to sacrifice, ANOVA with Bonferroni correction, FIG. 11D
# Method: MCF7-TGL cells stably expressing luciferase were implanted orthotopically in the mammary gland of ovariectomized female nude mice. […] The beginning of treatment is indicated by an arrow. Tumor burden was measured by whole body luminescence. […] Mice were matched on day −3 and treatment began on day 0. * indicates P<0.05, ANOVA with Bonferroni's multiple comparison test correction (FIG. 11A). The total luminescent flux is shown for all individual mice at the day of matching (Day −3) and at the final imaging day (Day 11). * indicates P<0.05, ANOVA with Bonferroni's multiple comparison test correction (FIG. 11B). Images of luminescent signal in the two treatment groups at the day of matching ([…]) and the final day of imaging (day 11) is shown (FIG. 11C). Mice were injected with BrdU two hours prior to sacrifice.
# MDA-MB-453 tumors = test: Androgen stimulated MDA-MB-453 orthotopic tumors in NOD-SCID-IL2Rgc-/- mice (Example 10); assay type: in vivo
# [6] = system: androgen-dependent luciferase reporter in MDA-kb2 cells; test: Luciferase assay in MDA-kb2 cells with androgen-dependent luciferase reporter; assay type: cell-based; settings: FIG. 7B
SMILES,growth of Hs578T cells (viable cells) (Hs578T cells),DHT-mediated growth of BCK4 cells (BCK4 cells),cell growth of BT20 (BT20 cells),cell viability of BT20 (BT20 cells),DHT-mediated tumor growth in vivo (caliper and IVIS imaging) (MCF7 cells [1]),estradiol-mediated growth of MCF7 cells (MCF7 cells [2]),"DHT induced tumor growth (tumor weight at necropsy) (MDA-MB-453 cells [3]; 10 mg/kg/d and 25 mg/kg/d RD162′ by oral gavage, both doses, FIG. 7E)","tumor growth induced by DHT (caliper tumor size) (MDA-MB-453 cells [3]; 10 mg/kg/d or 25 mg/kg/d RD162′ by oral gavage, either dose, FIG. 7D)",cell growth of MDA468 (MDA468 cells),cell viability of MDA468 (MDA468 cells),DHT-mediated growth of MCF7 cells (MCF7 cells [4]),proliferation of MDA-MB-453 cells induced by DHT (MDA-MB-453 cells [5]),"BrdU staining of tumor sections, P vs E2 group (MCF7-TGL cells)","inhibition of estrogen stimulated tumor growth (whole body luminescence) (MCF7-TGL cells; chow containing 50 mg/kg RD162′ vs tamoxifen pellet SQ, E2 pellet, FIGS. 11A-C)","androgen stimulated growth of MDA-MB-453 tumors (MDA-MB-453 tumors; RD162′ 10 mg/kg daily oral gavage from 100 mm^3, DHT pellet, FIGS. 10A-D)","tumor volume, DHT vs DHT+RD162′ (MDA-MB-453 tumors; RD162′ 25 mg/kg by oral gavage started when tumors reached 400 mm^3, weekly caliper, FIG. 10A)",DHT-induced signal in luciferase assay (printed as proliferation) [6]
"C[C@]12CCC(=O)C[C@@H]1CC[C@@H]1[C@@H]2CC[C@]2(C)[C@@H](O)CC[C@@H]12 [DHT, dihydrotestosterone, reference compound]",does not increase the growth,,,,,,,,,,,,,,,,
"CNC(=O)c1ccc(N2C(=S)N(c3ccc(C#N)c(C(F)(F)F)c3)C(=O)C2(C)C)cc1F [RD162′, enzalutamide]",Inhibits the Growth,blocks DHT-mediated growth,inhibits cell growth,decreases cell viability,inhibits DHT-mediated tumor growth,blocks estradiol-mediated growth,significantly inhibited DHT induced tumor growth,inhibited tumor growth,inhibits cell growth,decreases cell viability,blocks DHT-mediated growth,inhibits proliferation,< 0.001,as Effective as Tamoxifen,Inhibits Androgen Stimulated Growth,no significant differences at any time point,inhibits proliferation induced by DHT in a dose dependent manner
"CC/C(=C(\c1ccccc1)c1ccc(OCCN(C)C)cc1)c1ccccc1 [Tamoxifen, tamoxifen, reference compound]",,,,,,,,,,,,,< 0.01,,,,
